Results from patent US11427615B2, “Peptide compound and application thereof, and composition containing peptide compound” (XDCEXPLORER (SHANGHAI) CO., LTD., priority 2017, dated 2022).
Like-named read-outs stand apart in the source and are kept apart here. Non-standard residues stand in square brackets, D forms with d. Residues, ends and D or L forms follow the SMILES beside them. Groups on a side chain read outwards from the residue. *: point of attachment. X1 = CCCCCCCCCCCC(=O)NCCOCCOCCOCCOCCOCCSC1CC(=O)N(CCCC(=O)*)C1=O; X2 = CCCCCCCCCCCC(=O)NCCOCCOCCOCCOCCOCCn1cc(CC(=O)*)nn1; dPhe(2,4-Cl2) = N[C@H](Cc1ccc(Cl)cc1Cl)C(=O)O; PEG8 = NCCOCCOCCOCCOCCOCCOCCOCCOCCC(=O)O; Pro(4,4-F2) = O=C(O)[C@@H]1CC(F)(F)CN1; Arg(Me) = CNC(=N)NCCC[C@H](N)C(=O)O; Palmitoyl = CCCCCCCCCCCCCCCC(=O)*; Hyp = O=C(O)[C@@H]1C[C@@H](O)CN1; Gly(cPr) = N[C@H](C(=O)O)C1CC1; AllylGly = C=CC[C@H](N)C(=O)O; PEG4 = NCCOCCOCCOCCOCCC(=O)O; Ac6c = NC1(C(=O)O)CCCCC1; Aze = O=C(O)[C@@H]1CCN1; azaGly = NNC(=O)O

Experiments:
[1] = biological target: T1, human kiss1 receptor (GPR54) (Homo sapiens, UniProt Q969F8); assay: Kiss1 receptor (GPR54) binding activity of agonists, FRET detection in NFAT-bla CHO-K1 cells; type: cell-based
T1 construct: host or cells: NFAT-bla CHO-K1 cells (Chinese hamster ovary), purchased recombinant cell line
T1 sequence (Q969F8 whole entry): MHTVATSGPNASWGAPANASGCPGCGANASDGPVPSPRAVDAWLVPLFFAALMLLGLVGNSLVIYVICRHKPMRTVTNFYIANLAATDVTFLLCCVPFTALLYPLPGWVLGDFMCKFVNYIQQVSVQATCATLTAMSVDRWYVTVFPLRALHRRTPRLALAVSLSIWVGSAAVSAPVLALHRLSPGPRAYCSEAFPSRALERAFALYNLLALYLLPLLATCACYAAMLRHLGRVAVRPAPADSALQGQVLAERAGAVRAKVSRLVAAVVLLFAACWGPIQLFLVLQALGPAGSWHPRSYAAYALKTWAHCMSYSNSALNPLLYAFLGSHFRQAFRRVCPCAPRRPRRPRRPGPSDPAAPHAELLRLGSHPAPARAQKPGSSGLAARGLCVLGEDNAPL

[2] = Plasma stability, LC-MS/MS; type: in vitro ADME; details: rat plasma, 37° C., final concentration 500 ng/ml, time points 0 minutes, 1, 2 and 4 hours; calculated half-life; read-out: Rat plasma (T½ (h)) (converted)
Experimental: Effect Embodiment 2 Experimental Data on Plasma Stability of Some Compounds
1. Preparation of 50 mM Phosphate Buffer:
The 5.750 g Na2HPO4, 1.141 g NaH2PO4. and 4.095 g NaCl (Shanghai Titan) weighed was dissolved in 1000 mL ultrapure water and the pH was adjusted to 7.4 to give 50 mM phosphate buffer containing 70 mM NaCl. The prepared phosphoric acid buffer solution was stored in the refrigerator at 4° C. and was valid for one week.
2. Preparation of compound stock solution:
1). 5 mg/mL of test compound: 5 mg of compound was weighted and dissolved in 1 mL of DMSO.
2). 20 mM control: 2.728 mg of Fuka was dissolved in 0.5 mL of DMSO. 3.878 mg of benzalkonium bromide was dissolved in 0.5 mL of DMSO (Amresco).
3. Preparation of experimental plasma:
The frozen plasma (human: Shanghai wise chemistry; Rats and mice: Shanghai Sciple-Bikai; Dogs and monkeys: Suzhou Xishan Zhongke) were taken out of the −80° C. refrigerator, immediately placed in a 37° C. water bath, slightly shaken to melt it, then the thawed plasma was poured into a centrifuge tube, centrifuged at 3000 rpm for 8 min, and the supernatant was taken for experiments. The pH value of plasma was detected by a pH Meter & Sensor (METTLER TOLEDO). Only plasma with a pH value between 7.4 and 8 was used in the experiment. The plasma was placed on an ice bath for later use.
4. Preparation of administration solution:
1). 125 µg/ml test compound solution: 5 μL of 5 mg/mL test compound (see step 2) was added into 195 μL DMSO; 500 μM control solution: 20 mM control stock solution (see step 2) was added to 195 μL DMSO.
2). 0.5% BSA phosphate buffer solution: 0.05 g BSA was added to 10 mL phosphate buffer solution (see step 1);
3). 5 µg/ml of test compound administration solution: 40 μL of 125 μg/mL of test compound solution was added into 960 μL 0.5% BSA phosphate buffer solution, stirred and mixed evenly, and the administration solution was preheated in a 37° C. water bath for 5 minutes.
20 μM reference substance administration solution: 40 μL of 500 μM reference substance administration solution was added into 960 μL 0.5% BSA phosphate buffer solution, stirred and mixed evenly, and the administration solution was preheated in a 37° C. water bath for 5 minutes.
5. 10 μL of 5 μg/mL of the test compound and 20 μM of the control substance administration solution were respectively added to the wells set at different time points (0 minutes, 1 hour, 2 hours and 4 hours) on the 96-well plate, and the number of duplicate samples was 3.
6. 500 μL of ACN (IS) containing 5% FA was added to the well set at 0 minute hour, then 90 μL of plasma was added, after mixing, sealing film was pasted and placed at 4° C. (number of duplicate samples was 3).
7. 90 μL of plasma was added to the wells with set time points of 1 hour, 2 hours and 4 hours respectively, the number of duplicate samples was 3, and timing was started (the final concentration of the test compound was 500 ng/ml; The control was 2 μM).
9. All samples (0 minutes, 1 hour, 2 hours and 4 hours) at different time points on a 96-well plate were shaken for 10 minutes at 600 rpm/min on an oscillator (MTS 2/4, IKA), and then the samples were centrifuged for 15 minutes at 5594×g in a centrifuge (Multifuge×3R, thermo Fisher).
10. 150 μL of supernatant was taken from the centrifuged sample and sent to LC-MS/MS for analysis (conventional polypeptide LC-MS/MS analysis method).

[3] = GPR54, measured according to the method of effect Embodiment 1, preliminary data, read-out: Preliminary measurement data (GPR54) EC50

EC50 [1, 3] [nM]	EC50 ([1]; NFAT-bla CHO-K1 cells that express human kiss1 receptor (GPR54), FRET, cells cultured with compound for 4 hours, read-out: GPR54 EC50/nM) [nM]	half-life at 500 ng/ml [2] [h]	EC50 ([1]; human kiss1 receptor (GPR54), NFAT-bla CHO-K1 cells, FRET, preliminary data, method of effect Embodiment 1, read-out: Preliminary measurement data (GPR54) EC50) [nM]	SMILES
0.004	–	6.67	–	CNC(=N)NCCC[C@H](NC(=O)[C@H](CC(C)C)NC(=O)NNC(=O)[C@H](Cc1ccccc1)NC(=O)[C@@H](NC(=O)[C@H](CC(N)=O)NC(=O)[C@@H]1C[C@@H](O)CN1C(=O)[C@@H](Cc1ccc(O)cc1)NC(=O)CCOCCOCCOCCOCCNC(C)=O)[C@@H](C)O)C(=O)N[C@@H](Cc1c[nH]c2ccccc12)C(N)=O [YA-150, Ac-PEG4-(D-Tyr)-Hyp-Asn-Thr-Phe-azaGly-Leu-Arg(Me)-Trp-NH2] (Ac-[PEG4][dY][Hyp]NTF[azaGly]L[Arg(Me)]W-NH2)
0.132	–	2.05	–	CNC(=N)NCCC[C@H](NC(=O)[C@H](CC(C)C)NC(=O)C1(NC(=O)[C@H](Cc2ccccc2)NC(=O)[C@@H](NC(=O)[C@H](CC(N)=O)NC(=O)[C@@H]2C[C@@H](O)CN2C(=O)[C@@H](Cc2ccc(O)cc2)NC(C)=O)[C@@H](C)O)CCCCC1)C(=O)N[C@@H](Cc1c[nH]c2ccccc12)C(N)=O [YA-175, Ac-D-Tyr-Hyp-Asn-Thr-Phe-A6c-Leu-Arg(Me)-Trp-NH2] (Ac-[dY][Hyp]NTF[Ac6c]L[Arg(Me)]W-NH2)
–	–	9.63	–	CNC(=N)NCCC[C@H](NC(=O)[C@H](CC(C)C)NC(=O)NNC(=O)[C@H](Cc1ccccc1)NC(=O)[C@@H](NC(=O)[C@H](CC(N)=O)NC(=O)[C@@H]1CC(F)(F)CN1C(=O)[C@@H](Cc1ccc(Cl)cc1Cl)NC(C)=O)[C@@H](C)O)C(=O)N[C@@H](Cc1c[nH]c2ccccc12)C(N)=O [YA-180, Ac-[D-Phe(2,4-DiCl)]-Pro(diF)-Asn-Thr-Phe-azaGly-Leu-Arg(Me)-Trp-NH2] (Ac-[dPhe(2,4-Cl2)][Pro(4,4-F2)]NTF[azaGly]L[Arg(Me)]W-NH2)
–	–	4.26	–	CCCCCCCCCCCC(=O)NCCOCCOCCOCCOCCOCCSC1CC(=O)N(CCCC(=O)N[C@H](Cc2ccc(O)cc2)C(=O)N2C[C@H](O)C[C@H]2C(=O)N[C@@H](CC(N)=O)C(=O)N[C@H](C(=O)N[C@@H](Cc2ccccc2)C(=O)NNC(=O)N[C@@H](CC(C)C)C(=O)N[C@@H](CCCNC(=N)NC)C(=O)N[C@@H](Cc2c[nH]c3ccccc23)C(N)=O)[C@@H](C)O)C1=O (stereo partly drawn) [YA-325, Dodecanoy-(NH-PEG5-CH2CH2S)-(maleimide-butanoyl-)-(D-Tyr)-Hyp-Asn-Thr-Phe-azaG-Leu-Arg(Me)-Trp-NH2] (X1-[dY][Hyp]NTF[azaGly]L[Arg(Me)]W-NH2)
–	–	–	1.19	CNC(=N)NCCC[C@H](NC(=O)[C@H](CC(C)C)NC(=O)[C@@H](NC(=O)[C@H](Cc1ccccc1)NC(=O)[C@@H](NC(=O)[C@H](CC(N)=O)NC(=O)[C@@H]1C[C@@H](O)CN1C(=O)[C@@H](Cc1ccc(O)cc1)NC(C)=O)[C@@H](C)O)C1CC1)C(=O)N[C@@H](Cc1c[nH]c2ccccc12)C(N)=O [YA-396, Ac-(D-Tyr)-Hyp-Asn-Thr-Phe-Cpg-Leu-Leu-Arg(Me)-Trp-NH2] (Ac-[dY][Hyp]NTF[Gly(cPr)]L[Arg(Me)]W-NH2)

Second part, the molecule before the results:

SMILES	EC50 [1, 3] [nM]	EC50 ([1]; NFAT-bla CHO-K1 cells that express human kiss1 receptor (GPR54), FRET, cells cultured with compound for 4 hours, read-out: GPR54 EC50/nM) [nM]	half-life at 500 ng/ml [2] [h]	EC50 ([1]; human kiss1 receptor (GPR54), NFAT-bla CHO-K1 cells, FRET, preliminary data, method of effect Embodiment 1, read-out: Preliminary measurement data (GPR54) EC50) [nM]
CNC(=N)NCCC[C@H](NC(=O)[C@H](CC(C)C)NC(=O)NNC(=O)[C@H](Cc1ccccc1)NC(=O)[C@@H](NC(=O)[C@H](CC(N)=O)NC(=O)[C@@H]1C[C@@H](O)CN1C(=O)[C@@H](Cc1ccc(O)cc1)NC(C)=O)[C@@H](C)O)C(=O)N[C@@H](Cc1c[nH]c2ccccc12)C(N)=O [YA-3, Ac-(D-Tyr)-Hyp-Asn-Thr-Phe-azaGly-Leu-Arg(Me)-trp-NH2] (Ac-[dY][Hyp]NTF[azaGly]L[Arg(Me)]W-NH2)	0.03	0.03	10.1	–
CCCCCCCCCCCCCCCC(=O)NCCOCCOCCOCCOCCOCCOCCOCCOCCC(=O)NCC(=O)NCC(=O)N[C@H](Cc1ccc(O)cc1)C(=O)N1C[C@H](O)C[C@H]1C(=O)N[C@@H](CC(N)=O)C(=O)N[C@H](C(=O)N[C@@H](Cc1ccccc1)C(=O)NNC(=O)N[C@@H](CC(C)C)C(=O)N[C@@H](CCCNC(=N)NC)C(=O)N[C@@H](Cc1c[nH]c2ccccc12)C(N)=O)[C@@H](C)O [YA-156, Palm-PEG8-Gly-Gly-(D-Tyr)-Hyp-Asn-Thr-Phe-azaGly-Leu-Arg(Me)-Trp-NH2] ({Palmitoyl-PEG8}-GG[dY][Hyp]NTF[azaGly]L[Arg(Me)]W-NH2)	0.045	–	44.4	–
CCCCCCCCCCCCCCCC(=O)NCCOCCOCCOCCOCCOCCOCCOCCOCCC(=O)NCCCC[C@H](NC(C)=O)C(=O)NCC(=O)NCC(=O)N[C@H](Cc1ccc(O)cc1)C(=O)N1C[C@H](O)C[C@H]1C(=O)N[C@@H](CC(N)=O)C(=O)N[C@H](C(=O)N[C@@H](Cc1ccccc1)C(=O)NNC(=O)N[C@@H](CC(C)C)C(=O)N[C@@H](CCCNC(=N)NC)C(=O)N[C@@H](Cc1c[nH]c2ccccc12)C(N)=O)[C@@H](C)O [YA-157, Ac-Lys(Palm-PEG8)-Gly-Gly-(D-Tyr)-Hyp-Asn-Thr-Phe-azaGly-Leu-Arg(Me)-Trp-NH2] (Ac-K([PEG8-Palmitoyl])GG[dY][Hyp]NTF[azaGly]L[Arg(Me)]W-NH2)	0.03	–	6.67	–
CNC(=N)NCCC[C@H](NC(=O)[C@H](CC(C)C)NC(=O)NNC(=O)[C@H](Cc1ccccc1)NC(=O)[C@@H](NC(=O)[C@H](CC(N)=O)NC(=O)C1(NC(=O)[C@@H](Cc2ccc(O)cc2)NC(C)=O)CCCCC1)[C@@H](C)O)C(=O)N[C@@H](Cc1c[nH]c2ccccc12)C(N)=O [YA-172, Ac-D-Tyr-A6c-Asn-Thr-Phe-azaGly-Leu-Arg(Me)-Trp-NH2] (Ac-[dY][Ac6c]NTF[azaGly]L[Arg(Me)]W-NH2)	–	–	9.42	–
CCCCCCCCCCCC(=O)NCCOCCOCCOCCOCCOCCn1cc(CC(=O)N[C@H](Cc2ccc(O)cc2)C(=O)N2C[C@H](O)C[C@H]2C(=O)N[C@@H](CC(N)=O)C(=O)N[C@H](C(=O)N[C@@H](Cc2ccccc2)C(=O)NNC(=O)N[C@@H](CC(C)C)C(=O)N[C@@H](CCCNC(=N)NC)C(=O)N[C@@H](Cc2c[nH]c3ccccc23)C(N)=O)[C@@H](C)O)nn1 [YA-326, Dodecanoyl-NH-PEG5-1,2,3-Triazole-Cyclic-Butanoyl-(D-Tyr)-Hyp-Asn-Thr-Phe-Azag-Leu-Arg(Me)-Trp-NH2] (X2-[dY][Hyp]NTF[azaGly]L[Arg(Me)]W-NH2)	–	–	4.97	–
C=CC[C@H](NC(=O)[C@H](Cc1ccccc1)NC(=O)[C@@H](NC(=O)[C@H](CC(N)=O)NC(=O)[C@@H]1C[C@@H](O)CN1C(=O)[C@@H](Cc1ccc(O)cc1)NC(C)=O)[C@@H](C)O)C(=O)N[C@@H](CC(C)C)C(=O)N[C@@H](CCCNC(=N)NC)C(=O)N[C@@H](Cc1c[nH]c2ccccc12)C(N)=O [YA-350, Ac-(D-Tyr)-Hyp-Asn-Thr-Phe-Alg-Leu-Arg(Me)-Trp-NH2] (Ac-[dY][Hyp]NTF[AllylGly]L[Arg(Me)]W-NH2)	–	–	0.22	–
CNC(=N)NCCC[C@H](NC(=O)[C@H](CC(C)C)NC(=O)NNC(=O)[C@H](Cc1ccccc1)NC(=O)[C@@H]1CCN1C(=O)[C@H](CC(N)=O)NC(=O)[C@@H]1C[C@@H](O)CN1C(=O)[C@@H](Cc1ccc(O)cc1)NC(C)=O)C(=O)N[C@@H](Cc1c[nH]c2ccccc12)C(N)=O [YA-388, Ac-(D-Tyr)-Hyp-Asn-Aze-Phe-azaGly-Leu-Arg(Me)-Trp-NH2] (Ac-[dY][Hyp]N[Aze]F[azaGly]L[Arg(Me)]W-NH2)	0.058	–	–	–
